Consider 2 compounds from patent US8969247B2, “Method for controlling aquatic weeds” (BASF SE, priority 2005, dated 2015).

Molecules are shown by their SMILES.

Holding throughout (type): in vivo
In assay [1] the test system is Hydrilla verticillata. Description: Experiment 3: greenhouse static exposure of hydrilla to mesotrione. As to conditions: 500 ppb. The method, then: (§1) Greenhouse and shade house tests were initiated to evaluate the effects of HPPD-inhibitors, exemplary topramezone and mesotrione, for the control of aquatic weeds, exemplary for the control of Hydrilla verticillata.
(§2) To begin the experiment, containers were filled and maintained with a volume of 4000 ml of distilled water at room temperature (24° C.). To each container, an established hydrilla plant (potted in sand mixture) was transferred into the water column. Hydrilla plants were selected for uniformity and length of shoot growth (approx 15 cm). Plants were allowed to equilibrate in the columns for 24 hrs prior to herbicide treatment. Experimental treatments included an untreated control and mesotrione at 500 ppb. Treatments were applied to water columns by the use of a pipette. Amount of herbicide applied was based on the total volume of the containers (4000 ml). After initial herbicide treatment, the water columns were gently stirred to ensure uniform distribution. Treatments were arranged as a complete random design with 3 replications. Each container was considered the experimental unit. Greenhouse conditions were maintained at 24/18° C. (day/night) cycle for the duration of the experiment. Natural day length was supplemented with halogen lighting to provide a 14 hr photoperiod. Water level in the containers was periodically checked and maintained at the 4000 ml level for the duration of the study. At the end of four weeks, hydrilla shoot length and fresh weights were recorded.

Assay [2] has as its system Hydrilla verticillata. The experiment in a line: Experiment 1: greenhouse static exposure of hydrilla to topramezone. As to conditions: 500 ppb. The method, then:
as §1
as §2, with “topramezone” for “mesotrione”

For assay [3], the system named is Hydrilla verticillata. Description: Experiment 2: shade house (outdoor) static exposure of hydrilla to topramezone. As to conditions: for Hydrilla Shoot Weight: 8 weeks after treatment, dry weight biomass, control 1.5 g, LSD (0.05) 0.2. As for the experimental part: as §1
Experiment 2 was conducted under shade house (outdoor) conditions. Four 4-liter pots were filled with 15 to 20 cm of sand medium plus amended fertilizer (15 grams Osmocote®^1 19-6-12). Four actively growing Hydrilla verticillata tips (10 to 15 cm in length) were planted 1 to 2 cm deep in medium. The four 4-liter pots were placed in 100-liter containers and covered fully with tap water. Plants were treated 15 days after planting once plant elongation and active growth were observed. There were three 100-liter containers per water treatment (three replications) with four sub-sample 4-liter pots and four Hydrilla verticillata plants per 4-liter pot. Treatments were arranged as a complete random design. ^1 Osmocote®—manufactured by: Scotts-Sierra Horticutural Products Company, Marysville, Ohio 43401 U.S.A
Water treatments of 50 ppb, 75 ppb, 100 ppb, 200 ppb, and 400 ppb of topramezone were installed. Plants were harvested 8 weeks after initial water treatment to determine dry weight biomass reductions compared to the untreated check.

Setting [4] is: approximately 14 days after treatment.

For the compound `CS(=O)(=O)c1ccc(C(=O)C2C(=O)CCCC2=O)c([N+](=O)[O-])c1` [mesotrione], the Visual observations result in the assay on Hydrilla verticillata [1] (setting [4]) was “significant bleaching and reddening in the new grown tips”. Moreover, in the assay with Hydrilla verticillata [1] (end of the study (4 weeks)), the “Reduction in shoot biomass (Student's t-Test)” value is “significant reduction in shoot biomass” and the “Reduction in shoot length (Student's t-Test)” value is on record as “did not observe a significant reduction in shoot length”. Besides, in the assay with Hydrilla verticillata [1] (static exposure, 4 weeks after treatment, control 4.4 g), the “Hydrilla Fresh Weight” value worked out at 1.4 grams. Also, the “Hydrilla Shoot Length” value in the assay with Hydrilla verticillata [1] (static exposure, 4 weeks after treatment, control 24 cm) was found to be 16 cm.

Turning to `Cc1c(C(=O)c2cnn(C)c2O)ccc(S(C)(=O)=O)c1C1=NOCC1` [topramezone], in the assay on Hydrilla verticillata [2] (setting [4]), the Visual observations entry was “significant bleaching and reddening in the new grown tips”. The “Reduction in shoot length and biomass (Student's t-Test)” value in the assay with Hydrilla verticillata [2] (end of the study (4 weeks)) is “significant reductions in both shoot length and biomass”. Further, the “Effect on hydrilla tissue vs. the untreated control” value with Hydrilla verticillata [2] (over the course of the study) was “stunting and dieback of hydrilla tissue”. Further, the “Hydrilla Fresh Weight” value in the assay with Hydrilla verticillata [2] (static exposure, 4 weeks after treatment, control 17 g) is listed as 0.3 grams. Besides, the “Hydrilla Shoot Length” value with Hydrilla verticillata [2] (static exposure, 4 weeks after treatment, control 37 cm) is listed as 6 cm. In addition, the “Hydrilla Shoot Weight” value was determined as 1.3 grams in the assay with Hydrilla verticillata [3] (50 ppb); 0.8 grams in the assay with Hydrilla verticillata [3] (75 ppb); 0.8 grams with Hydrilla verticillata [3] (100 ppb); 0.7 grams with Hydrilla verticillata [3] (200 ppb); 0.6 grams with Hydrilla verticillata [3] (400 ppb). For the same compound, the “Reduction in shoot biomass vs. the untreated control” value in the assay on Hydrilla verticillata [3] (50 to 400 ppb, end of the study (8 weeks)) is reported as “significant reductions in shoot biomass”.
